Tests used:
Format in all cases: physicochemical
[1] = Birefringence test for anisotropic aggregates on wax-coated slide; set-up: key: Y is yes; N is no; settings: surfactant in IPA glyphosate formulation
Experimental: To determine whether a herbicidal formulation comprising glyphosate or a salt or ester thereof and a surfactant forms anisotropic aggregates on the foliage of a plant comprising the surfactant, the following birefringence testing procedure may be utilized.
First, a wax-coated slide is prepared. A preferred wax for preparing the slide is a blend of carnauba wax and beeswax in a weight/weight ratio of approximately 10:1, respectively. A clear wax mixture is prepared consisting of about 5% carnauba wax and about 0.5% beeswax in isopropanol, and is maintained at a temperature of approximately 82° C. The end of a glass 2.4 cm×7.2 cm microscope slide is immersed perpendicularly in the wax mixture to a depth of approximately one-third of the length of the slide. After about 10 to 15 seconds, the slide is very slowly and steadily withdrawn from the wax mixture and allowed to cool, leaving a wax layer deposited on both faces of the slide.
Visual examination of the slide can give a preliminary indication of the thickness and uniformity of the wax coating. If imperfections are evident the slide is rejected. […] Further evaluation of the acceptability of the wax-coated slide for the test is done by examining the slide under a microscope. The slide is selected for use in the test if, on microscopic examination using a 4.9× objective, the wax coating is uniformly thick and there is uniform density of wax particles across the slide.
The next stage in the procedure is to conduct the test.
The following instrumentation, or equivalent, items are required or useful for the test procedure: • Nikon SMZ-10A stereoscopic microscope equipped for polarized light observation, photomicrography, and video observation and recording. • 3CCD MTI camera. • Diagnostic Instruments 150 IL-PS power supply. • Sony Trinitron color video monitor, model PVM-1353MD. • Mitsubishi time-lapse video cassette recorder, model HS-S5600. • Hewlett Packard Pavillion 7270 computer, with Windows 95 and Image-Pro • Plus version 2.0 electronic imaging program installed. • Hewlett Packard Deskjet 870Cse printer.
For testing, a wax-coated slide, prepared and selected as described above, is positioned on the microscope stage, with the system set to provide transmitted light, both straight and polarized. A 1 microliter drop of the sample to be tested is applied to the wax surface using a thoroughly cleaned 1 microliter Hamilton syringe. This and subsequent operations are followed through the microscope at 4.9× objective. Duplicate or triplicate tests are done for each composition. Numerous tests can be conducted simultaneously on a single slide. Progression of change in the microscopic appearance of the sample is observed through the microscope and recorded at designated time intervals. Useful intervals are 1 minute, 10 minutes, 2 hours and greater than 24 hours after application of the drop to the wax surface. Observations can also be made at intermediate times to capture possible significant transitions occurring at such times.
The temperature of the wax layer tends to increase with prolonged exposure to the microscope light. […] However, in some cases temperature does affect the outcome of the test and in such cases it is preferred to illuminate the sample only for the short periods necessary to make observations, so that the temperature of the wax layer remains close to ambient temperature.
At dark field (polarized light) the wax layer is observed for birefringence, and at light field the character of the drop surface is observed, at each time interval. The following records are preferably made: • birefringence (y/n); • time of initial appearance of birefringence; • character of the birefringence; • appearance of drop surface as composition “dries”; • degree of spread of the drop; • effects of temperature (warming of the slide) if any; • other noticeable changes.

[2] = Compatibility of surfactant with potassium glyphosate concentrate (no phase separation, 50° C., 1 week); settings: 50° C. oven 1 week; for Compatible w/37% a.e. K + glyphosate at 12 wt % loading: 37 wt. % a.e. potassium glyphosate/12 wt. % surfactant; for Compatible w/45% a.e. K + glyphosate at 15% wt loading: 45 wt. % a.e. potassium glyphosate/15 wt. % surfactant
Experimental: For the 31 wt. % a.e. potassium glyphosate/10 wt. % surfactant compositions: 1.550 g of 40 wt. % a.e. aqueous glyphosate potassium salt solution was weighed into a vial. To the same vial, 0.200 g of surfactant was added. Enough deionized water was then added to the contents to bring the total weight to 2.000g. The mixture was stirred for 2 hours at room temperature and checked to see if a solution had been formed. If a solution was present, the test vial was allowed to stand at room temperature overnight. If a solution was still present, the test vial was placed in a 50° C. oven for 1 week. If no phase separation had occurred in one week, the surfactant being tested was considered “compatible.” All of the surfactants identified in Table 4 were compatible at the 31% a.e. potassium/10 wt. % surfactant loading.
For the 37 wt. % a.e. potassium glyphosate/12 wt. % surfactant compositions: 41.1 g of 45 wt. % a.e. aqueous glyphosate potassium salt was weighed to a container. To the same container was added 6.0 g of surfactant and 2.9 g deionized water for a total weight of 50.0 g. The remainder of the protocol is the same as that described for the 31 wt. % samples. The surfactants identified in Table 4 that were compatible at the 37% a.e. potassium/12 wt. % surfactant loading are indicated in Table 5 below.
For the 40 wt. % a.e. potassium glyphosate/10 wt. % surfactant compositions: 1.79 g of 45 wt. % a.e. aqueous glyphosate potassium salt was weighed into a vial. To the same vial was added 0.2 g of surfactant. The remainder of the protocol is the same as that described for the 31 wt. % samples. The surfactants identified in Table 4 that were compatible at the 40% a.e. potassium/10 wt. % surfactant loading are indicated in Table 5 below.
For the 45 wt. % a.e. potassium glyphosate/15 wt. % surfactant compositions: 1.100 g of solid mono potassium glyphosate was weighed into a vial. To the same vial was added 0.300 g surfactant. Enough deionized water was added to the vial to bring the final weight to 2.000 g. The remainder of the protocol is the same as that described for the 31 wt. % samples. The surfactants identified in Table 4 that were compatible at the 45% a.e. potassium/[…] are indicated in Table 5 below.

[3] = Compatibility of surfactant with diammonium glyphosate concentrate (no phase separation, 50° C., 1 week); settings: 50° C. oven 1 week; for Compatible w/31% a.e. diammonium glyphosate at 10 wt % loading: 31 wt. % a.e. diammonium glyphosate/10 wt. % surfactant; for Compatible w/37% a.e. diammonium glyphosate at 12 wt % loading: 37 wt. % a.e. diammonium glyphosate/12 wt. % surfactant
Experimental: For the 31 wt. % a.e. NH4^+glyphosate/10 wt. % surfactant compositions: • 1.48 g of 41.9 wt % a.e. aqueous glyphosate diammonium (1.7 eq) salt was weighed into a vial. To the same vial was added 0.2 g of surfactant and 0.32 g deionized water. The remainder of the protocol is the same as that described for the 31 wt % potassium glyphosate samples. The surfactants identified in Table 4 that were compatible at the 31% a.e. ammonium/10 wt. % surfactant loading are indicated in Table 5 below.
For the 37 wt. % a.e. NH4^+glyphosate/12 wt. % surfactant compositions: • 1.76 g of 41.9 wt % a.e. aqueous glyphosate diammonium (1.7 eq) salt was weighed into a vial. To the same vial was added […]. The remainder of the protocol is the same as that described for the 31 wt % potassium glyphosate samples. The surfactants identified in Table 4 that were compatible at the 37% a.e. ammonium/12 wt. % surfactant loading are indicated in Table 5 below.

[4] = Specific gravity (Mettler DA-300 Density/Specific Gravity Meter); settings: 20/15.6° C.; 30% a.e. by weight glyphosate monobasic salt solutions
Experimental: Specific gravities are measured using a Mettler DA-300 Density/Specific Gravity Meter.

Compound	AA (anisotropic aggregate) [1]	Compatible w/37% a.e. K + glyphosate at 12 wt % loading [2]	Compatible w/31% a.e. diammonium glyphosate at 10 wt % loading [3]	other results
CCCCCCCCCCN(C)CCCCN(C)CCCCCCCCCC [Gemini 10-4-10]	Y	–	–	–
CCCCCCCCNC(CO)(CO)CO [EEE]	–	Yes	Yes	Compatible w/45% a.e. K + glyphosate at 15% wt loading [2]: No; Compatible w/37% a.e. diammonium glyphosate at 12 wt % loading [3]: Yes
CCCCCCCCCCCCCCCCOCCOCCOCCOCCOCCOCCOCCOCCOCCOCCOCCOCCOCCOCCOCCOCCOCCOCCOCCOCCN(C)CC(O)CO (centres unmarked) [QQQ]	–	No	No	Compatible w/37% a.e. diammonium glyphosate at 12 wt % loading [3]: No
laureth-3 phosphate	N	–	–	–
CCCCCCCCCCCCCCCCOCCOCCOCCOCCOCCOCCOCCOCCOCCOCCOCCOCCOCCOCCOCCOCCOCCOCCOCCOCCN(C)CC(O)C(O)C(O)C(O)CO (centres unmarked) [PPP]	–	No	No	Compatible w/37% a.e. diammonium glyphosate at 12 wt % loading [3]: No
CN(CCCCCCCCCCCCN(C)CC(O)C(O)C(O)C(O)CO)CC(O)C(O)C(O)C(O)CO (centres unmarked) [Surfactant ZZ, 1,12 methylaminoglucitoldodecane]	–	Yes	–	Compatible w/45% a.e. K + glyphosate at 15% wt loading [2]: Yes
CCCCCCCC(=O)O [caprylic acid]	N	–	–	–
CCCCCCCCCCCCOCCOCCOCCOCCN(C)C [HHH]	–	–	No	–
CCCCCCCCCCN(C)CCCN(C)CCCCCCCCCC [Gemini 10-3-10]	Y	–	–	–
CCCCCCCC/C=C\CCCCCCCC(=O)O [oleic acid]	Y	–	–	–
CCCCCCCCCCN(C)CCN(C)CCCCCCCCCC [Gemini 10-2-10]	Y	–	–	–
CCCCCCCCN(CCCN(CCCCCCCC)CC(O)C(O)C(O)C(O)CO)CC(O)C(O)C(O)C(O)CO (centres unmarked) [Surfactant CCC, 1,8 hexylaminoglucitol octane]	–	Yes	–	Compatible w/45% a.e. K + glyphosate at 15% wt loading [2]: Yes
CCCCCCCCCCCCCCCCOCCOCCOCCOCCOCCOCCOCCOCCOCCOCCN(C)CCN(C)C [MMM]	–	Yes	Yes	–
C[S+](C)C.O=C(O)CNCP(=O)([O-])O [trimethylsulfonium (TMS)]	–	–	–	Specific Gravity [4]: 1.1904
CCCCCCCCCCN(C)C [drawing 146 w=10]	N	–	–	–
CCCCCCCCCCCCCCCCOCCOCCOCCOCCOCCOCCOCCOCCOCCOCCNCCCN [KKK]	–	Probably	–	Compatible w/45% a.e. K + glyphosate at 15% wt loading [2]: Yes, but minor
CCCCCCCCCCCCOS(=O)(=O)[O-].[Na+] [sodium lauryl sulfate]	Y	–	–	–

Compound	AA (anisotropic aggregate) [1]	Compatible w/37% a.e. K + glyphosate at 12 wt % loading [2]	Compatible w/31% a.e. diammonium glyphosate at 10 wt % loading [3]	other results
CCCCCCCCCCCC[N+](C)(C)C [VVV]	–	–	Yes	Compatible w/37% a.e. diammonium glyphosate at 12 wt % loading [3]: No
CCCCC(CC)COP(=O)(O)O (centres unmarked) [2-ethylhexyl phosphate]	N	–	–	–
CCCCCCCCCCCCCCCCCCN(C)CCOCCOCCOCCOCCOCCOCCOC [Surfactant C, α-methyl-ω-(N-methyloctadecylamino)poly(oxy-1,2-ethanediyl)]	–	–	No	–
CCCCCCCCCCCCCCCCN(C)CCN(C)CCCCCCCCCCCCCCCC	Y	–	–	–
CCN.O=C(O)CNCP(=O)(O)O	–	–	–	Specific Gravity [4]: 1.1599
CCCCCCCCCCCCCCCCCC(=O)O [stearic acid]	Y	–	–	–
CCCN.O=C(O)CNCP(=O)(O)O	–	–	–	Specific Gravity [4]: 1.1429
CCCCCCCCCCCCCCCC(=O)O [palmitic acid]	Y	–	–	–
CCCCCCCCCCCCCCCCCC[N+](C)(C)CC(O)C(O)C(O)C(O)CO (centres unmarked) [YY]	–	No	Yes	Compatible w/37% a.e. diammonium glyphosate at 12 wt % loading [3]: No
CCCCCCCCCCCCN(C)CC(O)C(O)C(O)C(O)CO (centres unmarked) [RR]	–	Yes	Yes	Compatible w/45% a.e. K + glyphosate at 15% wt loading [2]: Yes; Compatible w/37% a.e. diammonium glyphosate at 12 wt % loading [3]: Yes
CC(C)N.O=C(O)CNCP(=O)(O)O [isopropylammonium (IPA)]	–	–	–	Specific Gravity [4]: 1.1554
CCCCCCCCCCCCNC(CO)(CO)CO [FFF]	–	–	No	Compatible w/37% a.e. diammonium glyphosate at 12 wt % loading [3]: No
CCCCCCCCCCCC[N+](C)(C)CC(O)C(O)C(O)C(O)CO (centres unmarked) [XX]	–	No	Yes	Compatible w/37% a.e. diammonium glyphosate at 12 wt % loading [3]: No
CCCCCCCCCCCCCCCCOCCOCCOCCOCCOCCOCCOCCOCCOCCOCCN(C)CC(O)C(O)C(O)C(O)CO (centres unmarked) [OOO]	–	Probably	No	Compatible w/37% a.e. diammonium glyphosate at 12 wt % loading [3]: Yes
CN [methylammonium]	–	–	–	Specific Gravity [4]: 1.1667
NCCO.O=C(O)CNCP(=O)(O)O [monoethanolammonium (MEA)]	–	–	–	Specific Gravity [4]: 1.2357
ammonium	–	–	–	Specific Gravity [4]: 1.1814

Source: patent US20050261130A1, “Novel surfactants and formulations” (Monsanto Technology LLC, priority 2000, published 2005)
